Test results: patent US9657022B2, “7-OXO-1,6-diazabicyclo[3.2.1]octane derivatives and their use as antibacterial agents” (WOCKHARDT LIMITED, priority 2014, dated 2017)
Converted amounts (≈) assume the structure as drawn. “And” between values parts separate entries of the source, which are not always exact repeats. Equal values may be shown once. Read-outs that look alike come from different tables or passages of the source.

Columns and labels:
[1] = system: E. coli NCTC 13353 (CTX-M15, OXA-1); experiment: Antibacterial activity (MIC), agar dilution per CLSI; format: cell-based; conditions: Escherichia coli, NCTC13353; E. coli NCTC 13353 (CTX-M15, OXA-1); read-out: MIC
Method: (§1) The biological activity of representative compounds according to the invention against various bacterial strains was investigated. In a typical study, overnight grown bacterial cultures were diluted appropriately and inoculated on the agar media containing doubling dilutions of the test compounds. Observations for growth or no growth was performed after 16-20 hours of incubation at 35±2° C. in the ambient air. The overall procedure was performed as per Clinical and Laboratory Standards Institute (CLSI) recommendations, (Clinical and Laboratory Standards Institute (CLSI), Performance Standards for Antimicrobial Susceptibility Testing, 20th Informational Supplement, M07-A9, Volume 32, No. 2, 2012). Molten Mueller Hinton Agar (BD, USA) containing serial dilutions of each antibacterial agent were poured on to the plates and allowed to solidify. Appropriate suspensions from the freshly grown cultures were prepared in normal saline so that about 10^4 CFU/spot of the organism was delivered on to the drug containing agar plates using automated multipoint inoculator (Mast, UK). The plates were incubated in Biochemical oxygen demand (BOD) incubator at 37° C. for 18 hours and then examined for growth.
(§2) The strains selected for study included E. coli NCTC 13353 producing CTX-M15 and OXA-1 beta-lactamase enzymes; K. pneumoniae H521 producing KPC, SHV, TEM beta-lactamase enzymes; and K. pneumoniae S48 producing NDM, SHV, TEM beta-lactamase enzymes. The activities are expressed as Minimum Inhibitory Concentrations (MICs) (mcg/ml).
(§3) The activities are expressed as Minimum Inhibitory Concentrations (MICs) (mcg/ml).

[2] = system: K. pneumoniae H521 (KPC, SHV, TEM); experiment: as above; format: cell-based; conditions: Klebsiella pneumoniae; K. pneumoniae H521 (KPC, SHV, TEM); read-out: MIC
Method: as §1, §2, §3

C. frundaii 58 MP = experiment: as above; format: cell-based
Method: as §1
(§4) Table 3 details the antibacterial activity of representative compound of Formula (I), (2S,5R)-sulfuric acid mono-{2-[N′-(2-(S)-pyrrolidin-2-yl-acetyl)-hydrazinocarbonyl]-7-oxo-1,6-diaza-bicyclo[3.2.1]oct-6-yl}ester (Compound of Example 1), against various Multi Drug Resistant (MDR) Gram-negative bacterial strains. The activities are expressed as Minimum Inhibitory Concentrations (MICs) (mcg/ml).

E. cloacae M 20 = experiment: as above; format: cell-based; conditions: Enterobacter cloacae, M20
Method: as §1, §4

E. coli 7 MP = experiment: as above; format: cell-based; conditions: Escherichia coli
Method: as §1, §4

E. coli M 49 = experiment: as above; format: cell-based; conditions: Escherichia coli, M49
Method: as §1, §4

E. coli M 50 = experiment: as above; format: cell-based; conditions: Escherichia coli, M50
Method: as §1, §4

E. coli NCTC 13351 = experiment: as above; format: cell-based; conditions: Escherichia coli, NCTC13351
Method: as §1, §4

E. coli NCTC 13352 = experiment: as above; format: cell-based; conditions: Escherichia coli, NCTC13352
Method: as §1, §4

K. pneumoniae B 88 = experiment: as above; format: cell-based; conditions: Klebsiella pneumoniae, B88
Method: as §1, §4

K. pneumoniae H 525 = experiment: as above; format: cell-based; conditions: Klebsiella pneumoniae, H525
Method: as §1, §4

K. pneumoniae S 21 = experiment: as above; format: cell-based; conditions: Klebsiella pneumoniae, S21
Method: as §1, §4

P. aeruginosa 2779 = experiment: as above; format: cell-based; conditions: Pseudomonas aeruginosa
Method: as §1, §4

P. aeruginosa ATCC 27853 = experiment: as above; format: cell-based; conditions: Pseudomonas aeruginosa, ATCC27853
Method: as §1, §4

P. aeruginosa PAO1 = experiment: as above; format: cell-based; conditions: Pseudomonas aeruginosa
Method: as §1, §4

P. aeruginosa R 20 = experiment: as above; format: cell-based; conditions: Pseudomonas aeruginosa, R20
Method: as §1, §4

[3] = biological target: T1, Class A beta-lactamase SHV 18 (K. pneumoniae ATCC 700603) (Klebsiella pneumoniae, UniProt P0AD64, E235K/G234A/I4F/R39S); experiment: Beta-lactamase enzyme inhibition (Nitrocefin, crude enzyme); format: biochemical; conditions: Class A, K. pneumoniae ATCC 700603 (SHV 18); read-out: Beta-lactamase enzyme inhibition IC50
T1 sequence (P0AD64 1-286 I4F/R39S/G234A/E235K): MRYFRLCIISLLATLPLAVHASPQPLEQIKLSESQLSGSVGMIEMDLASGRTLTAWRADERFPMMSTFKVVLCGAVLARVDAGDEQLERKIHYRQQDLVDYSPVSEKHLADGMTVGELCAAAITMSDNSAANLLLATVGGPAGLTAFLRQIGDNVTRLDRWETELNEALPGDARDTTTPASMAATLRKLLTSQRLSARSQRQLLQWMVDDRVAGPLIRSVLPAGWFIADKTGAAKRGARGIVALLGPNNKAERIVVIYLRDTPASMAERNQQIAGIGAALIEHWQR
Method: (§5) Absorbance was measured at 485 nm by UV-spectrophotometer. The IC50 was calculated by plotting absorbance against concentration through Sigmoidal dose response curve using Graph Pad software.
(§6) The enzyme inhibition was expressed as IC50.

[4] = system: Class C beta-lactamase CMY/DHA (E. coli M50); experiment: as above; format: biochemical
Method: as §5, §6

[5] = biological target: T2, Class D beta-lactamase OXA 23 (A. baumannii NCTC 13301) (Acinetobacter baumannii, UniProt Q9L4P2); experiment: as above; format: biochemical; conditions: Class D, A. baumannii NCTC 13301 (OXA 23); read-out: Beta-lactamase enzyme inhibition IC50
T2 construct: preincubated mixture of crude enzyme and the compounds; endogenous in cells; host or cells: A. baumannii NCTC 13301
T2 sequence (Q9L4P2 18-273): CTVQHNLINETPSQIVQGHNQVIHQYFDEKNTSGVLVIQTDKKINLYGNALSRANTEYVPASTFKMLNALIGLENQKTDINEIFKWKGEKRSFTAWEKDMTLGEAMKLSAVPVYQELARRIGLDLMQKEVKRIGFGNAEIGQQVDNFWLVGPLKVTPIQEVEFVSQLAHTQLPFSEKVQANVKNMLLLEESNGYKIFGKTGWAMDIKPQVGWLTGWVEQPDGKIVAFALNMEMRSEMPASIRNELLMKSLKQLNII
Method: as §5, §6

[6] = biological target: T3, Class C beta-lactamase P99 (E. cloacae J137) (Enterobacter cloacae, UniProt P05364); experiment: as above; format: biochemical
T3 construct: preincubated mixture of crude enzyme and the compounds; endogenous in cells; host or cells: E. cloacae J137
T3 sequence (P05364 21-381): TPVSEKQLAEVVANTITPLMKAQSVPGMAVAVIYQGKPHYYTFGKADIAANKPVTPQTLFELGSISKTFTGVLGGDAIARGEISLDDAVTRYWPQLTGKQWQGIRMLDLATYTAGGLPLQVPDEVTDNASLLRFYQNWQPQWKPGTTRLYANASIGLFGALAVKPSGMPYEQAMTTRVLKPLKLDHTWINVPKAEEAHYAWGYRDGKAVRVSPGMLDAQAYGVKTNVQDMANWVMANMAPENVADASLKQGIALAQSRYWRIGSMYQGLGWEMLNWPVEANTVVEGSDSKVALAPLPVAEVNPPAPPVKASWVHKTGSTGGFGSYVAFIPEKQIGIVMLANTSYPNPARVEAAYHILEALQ
Method: as §5

[7] = biological target: Class D beta-lactamase OXA 26 (A. baumannii NCTC 13303) (Acinetobacter baumannii, UniProt Q9F0V2); experiment: as above; format: biochemical; conditions: A. baumannii NCTC 13303 (OXA 26), read-out: Beta-lactamase enzyme inhibition IC50
Sequence of Class D beta-lactamase OXA 26 (A. baumannii NCTC 13303) (Q9F0V2 entry or part of it): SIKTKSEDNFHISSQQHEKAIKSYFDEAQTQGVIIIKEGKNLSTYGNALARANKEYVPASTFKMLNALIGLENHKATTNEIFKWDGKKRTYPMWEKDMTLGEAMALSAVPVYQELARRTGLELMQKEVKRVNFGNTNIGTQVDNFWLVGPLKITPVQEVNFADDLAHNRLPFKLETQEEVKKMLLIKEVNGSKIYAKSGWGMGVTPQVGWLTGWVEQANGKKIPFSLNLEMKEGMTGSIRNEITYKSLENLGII
Method: as §5

In the case of `O=C(C[C@@H]1CCCN1)NNC(=O)[C@@H]1CC[C@@H]2CN1C(=O)N2OS(=O)(=O)O` [Example 1, (2S,5R)-Sulfuric acid mono-{2-[N′-(2-(S)-pyrrolidin-2-yl-acetyl)-hydrazinocarbonyl]-7-oxo-1,6-diaza-bicyclo[3.2.1]oct-6-yl}ester], the MIC [1] is reported as 0.5 µg/mL (≈ 1.28 µM), the MIC [2] is reported as 0.5 µg/mL (≈ 1.28 µM) and the MIC (C. frundaii 58 MP) is reported as 0.5 µg/mL (≈ 1.28 µM). It also gave an MIC (E. cloacae M 20) of 0.5 µg/mL (≈ 1.28 µM), an MIC (E. coli 7 MP) of 1 µg/mL (≈ 2.55 µM) and an MIC (E. coli M 49) of 2 µg/mL (≈ 5.11 µM). It also gave an MIC (E. coli M 50) of 0.5 µg/mL (≈ 1.28 µM), an MIC (E. coli NCTC 13351) of 0.5 µg/mL (≈ 1.28 µM) and an MIC (E. coli NCTC 13352) of 0.5 µg/mL (≈ 1.28 µM). The MIC (K. pneumoniae B 88) was 0.5 µg/mL (≈ 1.28 µM), the MIC (K. pneumoniae H 525) was 0.5 µg/mL (≈ 1.28 µM) and the MIC (K. pneumoniae S 21) was 2 µg/mL (≈ 5.11 µM). The MIC (P. aeruginosa 2779) was 8 µg/mL (≈ 20.4 µM), the MIC (P. aeruginosa ATCC 27853) was 8 µg/mL (≈ 20.4 µM) and the MIC (P. aeruginosa PAO1) was 4 µg/mL (≈ 10.2 µM). The MIC (P. aeruginosa R 20) was 16 µg/mL (≈ 40.9 µM), the IC50 [3] was 80 nM and 81 nM and the IC50 [4] was 60 nM. It also gave an IC50 ([4]; listed as Compound of Example 1) of 65 nM, an IC50 [5] of 2390 nM and an IC50 [6] of 27 nM. It also gave an IC50 [7] of 4770 nM.
